Laboratory results from patent US20240390383A1, “DIOXAZINES AND THEIR USE IN TREATMENT OF GBA-RELATED DISEASES” (ZEVRA DENMARK A/S, priority 2021, published 2024).
Where “and” joins values, the source holds several entries; their conditions need not be identical. Equal entries are not always repeated.

Molecular target: T1, GCase (GBA) in human fibroblast cell line GM10915 harboring the L444P GBA mutation (Homo sapiens, UniProt P04062, L483P)
T1 construct: Human fibroblast cell line GM10915 harboring the L444P GBA mutation; host or cells: GM10915 human fibroblasts
T1 sequence (P04062 40-536 L483P): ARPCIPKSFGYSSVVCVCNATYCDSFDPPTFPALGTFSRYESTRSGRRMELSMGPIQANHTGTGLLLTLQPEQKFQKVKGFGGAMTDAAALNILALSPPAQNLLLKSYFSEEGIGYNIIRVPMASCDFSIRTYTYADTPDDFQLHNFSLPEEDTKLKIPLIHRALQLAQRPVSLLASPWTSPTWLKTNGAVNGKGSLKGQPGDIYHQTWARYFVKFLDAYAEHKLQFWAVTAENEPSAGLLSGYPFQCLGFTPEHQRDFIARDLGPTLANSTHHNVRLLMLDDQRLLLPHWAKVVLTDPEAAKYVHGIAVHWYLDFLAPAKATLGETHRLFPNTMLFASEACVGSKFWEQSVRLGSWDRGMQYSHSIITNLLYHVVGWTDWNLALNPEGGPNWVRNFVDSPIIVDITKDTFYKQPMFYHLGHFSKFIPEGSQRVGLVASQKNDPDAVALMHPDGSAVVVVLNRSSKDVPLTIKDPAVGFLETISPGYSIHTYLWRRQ
Experiment: GCase activity assay (4-MUG substrate, normalised to crystal violet staining) in L444P GBA fibroblasts
Format: cell-based
Settings: 5 days exposure; for GBA EC1.5: concentration giving 150% GCase activity (1.5-fold induction), 8-point dose range
Protocol: Human fibroblast cell line GM10915 harboring the L444P GBA mutation was obtained from Coriell Biorepositories.
All chemicals (Glacial acetic acid, Glycine, 4-Methylumbelliferyl b-D-glucopyranoside (4-MUG), Sodium acetate trihydrate, Sodium hydroxide, Crystal violet, SDS, Ammonium hydroxide) were obtained from Sigma-Aldrich (Denmark) Compounds tested for GCase activity were dissolved in H2O or DMSO.
The GM10915 cell line was cultured under standard cell culture conditions (37° C. and 5% CO2) in complete DMEM medium supplemented with nonessential amino acids (NEAA), 1% Pen-Strep and 12% FCS. Cells were seeded at a density of 10^4 cells/well in 100 μL complete medium in one black 96-well plate for glucosylceramidase (GCase) activity measurement and in one clear 96-well plate for crystal violet staining to correct for cell density. Crystal violet staining is performed to obtain quantitative information about the relative density of cells adhering to multi-wells plates.
The assay was adapted from Sawkar et al (2002) and briefly described in the following. The day after seeding of cells, the medium was replaced with fresh medium containing the compounds to be tested. Compounds were tested in duplicate and in an 8-point diluted dose range to obtain a dose response. Cells were exposed with compounds for five days. Fresh compound was added every 2-3 days. PBS was included to define the basal level of GCase activity.
Cells were washed three times with 200 μL PBS per well and 50 μL of 2.5 mM 4-MUG buffer (4-MUG dissolved in 0.2 M acetate buffer pH 4.0) was added and the cells were incubated at 37° C., 5% CO2 for 23 hours. The reaction was stopped by adding 150 μL 0.2 M glycine buffer (pH 10.8). Fluorescence was measured with a Varioskan® Flash reader (Thermo Scientific) at an excitation/emission setting of 365/445 nm.
Cells were treated with compounds in a parallel setup identical to the setup to test for GCase activity. At the end of compound treatment, cells were washed once with 200 μL PBS per well and 50 μL 0.1% w/v crystal violet (in H2O) was added. Following 10 min. of incubation, the crystal violet solution was removed, and the cells were washed three times with 200 μL PBS and 100 μL 1% SDS was added to solubilize the stain. The plate was agitated on an orbital shaker for 10-30 min. Absorbance (A) is measured at […] using a Varioskan® Flash reader (Thermo Scientific).
The fluorescence signal (F) derived from the GCase measurement is normalized to the absorbance signal (A) derived from the crystal violet staining. The percent GCase activity resulting from compound treatment is calculated relative to the basal activity obtained from untreated cells.
Maximal effect of compounds (Emax) is determined from the dose response effects as the maximum “Percent GCase activity” achieved in the dose range tested.

[1] = maximum percent GCase activity relative to untreated cells in the dose range tested

SMILES	GBA EC1.5	Emax [1]	GBA Emax [1]
COC1CCN(C)CC1C1=NOCC(CN2CCCCC2)O1 (racemic) [compound 700, rac-3-(4-methoxy-1-methylpiperidin-3-yl)-5-(piperidin-1-ylmethyl)-5,6-dihydro-1,4,2-dioxazine]	15 µM	270%	–
COCCC1(C2=NOCC(CN3CCCCC3)O2)CCN(C)C1 (racemic) [compound 701, rac-3-(3-(2-methoxyethyl)-1-methylpyrrolidin-3-yl)-5-(piperidin-1-ylmethyl)-5,6-dihydro-1,4,2-dioxazine]	21 µM	225%	–
CC1(C)CC(C2=NOCC(CN3CCCCC3)O2)CCN1 (racemic) [compound 705, rac-3-(2,2-dimethyl-4-piperidyl)-5-(1-piperidylmethyl)-5,6-dihydro-1,4,2-dioxazine]	5 µM	180%	–
CC(C)C1ON=C(C2CCNCC2)OC1CN1CCCCC1 (racemic) [compound 706, rac-6-isopropyl-5-(piperidin-1-ylmethyl)-3-(piperidin-4-yl)-5,6-dihydro-1,4,2-dioxazine]	6 µM	180%	–
CC(C)C1ON=C(C2CCN(C)C2)OC1CN1CCCCC1 (racemic) [compound 707, rac-6-isopropyl-3-(1-methylpyrrolidin-3-yl)-5-(piperidin-1-ylmethyl)-5,6-dihydro-1,4,2-dioxazine]	4 µM and 2 µM	249%	230%
CC(C)N1CCCC(C2=NOCC(CN3CCCCC3)O2)C1 (racemic) [compound 709, rac-3-(1-isopropylpiperidin-3-yl)-5-(piperidin-1-ylmethyl)-5,6-dihydro-1,4,2-dioxazine]	22 µM	178%	–
CN(C)C(=O)CN1CCCC(C2=NOCC(CN3CCCCC3)O2)C1 (racemic) [compound 710, rac-N,N-dimethyl-2-(3-(5-(piperidin-1-ylmethyl)-5,6-dihydro-1,4,2-dioxazin-3-yl)piperidin-1-yl)acetamide]	28 µM	234%	–
NC(=O)CN1CCCC(C2=NOCC(CN3CCCCC3)O2)C1 (racemic) [compound 711, rac-2-(3-(5-(piperidin-1-ylmethyl)-5,6-dihydro-1,4,2-dioxazin-3-yl)piperidin-1-yl)acetamide]	38 µM	198%	–
CC(C)C1ON=C(C2CCNC2)OC1CN(C)C (racemic) [compound 713, rac-1-(6-isopropyl-3-(pyrrolidin-3-yl)-5,6-dihydro-1,4,2-dioxazin-5-yl)-N,N-dimethylmethanamine]	28 µM	212%	–
COC1CN(C(C)C)CCC1C1=NOCC(CN2CCCCC2)O1 (racemic) [compound 714, rac-3-(1-isopropyl-3-methoxypiperidin-4-yl)-5-(piperidin-1-ylmethyl)-5,6-dihydro-1,4,2-dioxazine]	16 µM	213%	–
CC(C)N1CCC(C2=NOCC(CN3CCCCC3)O2)CC1 (racemic) [compound 719, rac-3-(1-isopropylpiperidin-4-yl)-5-(piperidin-1-ylmethyl)-5,6-dihydro-1,4,2-dioxazine]	10 µM	242%	–
COC1CN(C)CCC1C1=NOCC(CN2CCCCC2)O1 (racemic) [compound 720, rac-3-(3-methoxy-1-methylpiperidin-4-yl)-5-(piperidin-1-ylmethyl)-5,6-dihydro-1,4,2-dioxazine]	11 µM	346%	–
CNC(=O)CN1CCCC(C2=NOCC(CN3CCCCC3)O2)C1 (racemic) [compound 721, rac-N-methyl-2-(3-(5-(piperidin-1-ylmethyl)-5,6-dihydro-1,4,2-dioxazin-3-yl)piperidin-1-yl)acetamide]	33 µM	175%	–
OCC1(C2=NOCC(CN3CCCCC3)O2)CCNCC1 (racemic) [compound 722, rac-(4-(5-(piperidin-1-ylmethyl)-5,6-dihydro-1,4,2-dioxazin-3-yl)piperidin-4-yl)methanol]	26 µM	153%	–
NCC(=O)N1CCCC(C2=NOCC(CN3CCCCC3)O2)C1 (racemic) [compound 725, rac-2-amino-1-(3-(5-(piperidin-1-ylmethyl)-5,6-dihydro-1,4,2-dioxazin-3-yl)piperidin-1-yl)ethan-1-one]	36 µM	168%	–
COCCC1(C2=NOCC(CN3CCCCC3)O2)CCNCC1 (racemic) [compound 726, rac-3-(4-(2-methoxyethyl)piperidin-4-yl)-5-(piperidin-1-ylmethyl)-5,6-dihydro-1,4,2-dioxazine]	8 µM	269%	–
CC(N)C(=O)N1CCC(C2=NOCC(CN3CCCCC3)O2)CC1 (racemic) [compound 748, rac-2-amino-1-(4-(5-(piperidin-1-ylmethyl)-5,6-dihydro-1,4,2-dioxazin-3-yl)piperidin-1-yl)propan-1-one]	16 µM	283%	–
CNC1CNCC(C2=NOCC(CN3CCCCC3)O2)C1 (racemic) [compound 756, rac-N-methyl-5-(5-(piperidin-1-ylmethyl)-5,6-dihydro-1,4,2-dioxazin-3-yl)piperidin-3-amine]	39 µM	121%	–
CN(C)[C@H]1CNC[C@H]1C1=NOCC(CN2CCCCC2)O1 (mixture of isomers) [compound 766, rac-rel-cis-(3R,4R)—N,N-dimethyl-4-(5-(piperidin-1-ylmethyl)-5,6-dihydro-1,4,2-dioxazin-3-yl)pyrrolidin-3-amine]	38 µM	136%	–
CN(C)CCCC1=NOCC(CN2CCCCC2)O1 (racemic) [compound 768, rac-N,N-dimethyl-3-(5-(piperidin-1-ylmethyl)-5,6-dihydro-1,4,2-dioxazin-3-yl)propan-1-amine]	6 µM	238%	–
CN1CCC(C2=NOCC(CN3CCCCC3)O2)CC1 (racemic) [compound 770, rac-3-(1-methylpiperidin-4-yl)-5-(piperidin-1-ylmethyl)-5,6-dihydro-1,4,2-dioxazine]	9 µM	265%	–
CN(C)CCC1=NOCC(CN2CCCCC2)O1 (racemic) [compound 779, rac-N,N-dimethyl-2-(5-(piperidin-1-ylmethyl)-5,6-dihydro-1,4,2-dioxazin-3-yl)ethan-1-amine]	11 µM	259%	–
NCC(=O)N1CCC(C2=NOCC(CN3CCCCC3)O2)CC1 (racemic) [compound 787, rac-2-amino-1-(4-(5-(piperidin-1-ylmethyl)-5,6-dihydro-1,4,2-dioxazin-3-yl)piperidin-1-yl)ethan-1-one]	42 µM	193%	–
c1cncc(CNCCC2=NOCC(CN3CCCCC3)O2)c1 (racemic) [compound 797, rac-2-(5-(piperidin-1-ylmethyl)-5,6-dihydro-1,4,2-dioxazin-3-yl)-N-(pyridin-3-ylmethyl)ethan-1-amine]	46 µM	149%	–
COc1cncc(CNCCC2=NOCC(CN3CCCCC3)O2)c1 (racemic) [compound 806, rac-N-((5-methoxypyridin-3-yl)methyl)-2-(5-(piperidin-1-ylmethyl)-5,6-dihydro-1,4,2-dioxazin-3-yl)ethan-1-amine]	40 µM	183%	–
